Measurements taken from PubChem BioAssay (NCI).
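Step 1: Grow cells in 96-well plates. Step 2: Expose to compound for 48 hours at 5 concentrations. Step 3: Interpolate endpoints linearly; if unreached, use highest concentration. GI50 = concentration required for 50% inhibition of growth. TGI: total growth inhibition.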

Columns and labels:
Assay in all cases: inhibition of tumour cell growth, NCI panel, 48 h
786-0 renal = tested on: 786-0 renal
A498 renal = tested on: A498 renal
A549 NSCLC = tested on: A549 NSCLC
ACHN renal = tested on: ACHN renal
BT-549 breast = tested on: BT-549 breast
CAKI-1 renal = tested on: CAKI-1 renal
CCRF-CEM leukemia = tested on: CCRF-CEM leukemia
COLO 205 colon = tested on: COLO 205 colon
DU-145 prostate = tested on: DU-145 prostate
EKVX NSCLC = tested on: EKVX NSCLC
HCC-2998 colon = tested on: HCC-2998 colon
HCT-116 colon = tested on: HCT-116 colon
HCT-15 colon = tested on: HCT-15 colon
HOP-62 NSCLC = tested on: HOP-62 NSCLC
HT29 colon = tested on: HT29 colon
IGROV1 ovarian = tested on: IGROV1 ovarian
K-562 leukemia = tested on: K-562 leukemia
KM12 colon = tested on: KM12 colon
LOX IMVI melanoma = tested on: LOX IMVI melanoma
M14 melanoma = tested on: M14 melanoma
MALME-3M melanoma = tested on: MALME-3M melanoma
MCF7 breast = tested on: MCF7 breast
MDA-MB-231 breast = tested on: MDA-MB-231 breast
MDA-MB-435 = tested on: MDA-MB-435
NCI-H226 lung = tested on: NCI-H226 lung
NCI-H23 lung = tested on: NCI-H23 lung
NCI-H460 lung = tested on: NCI-H460 lung

Q: How did the GI50 (786-0 renal) turn out when CNCc1ccccc1-c1csc([C@@H](C)Nc2nc(C)nc3cc(OC)c(OC)cc23)c1 was run?
A: 1520 nM

Q: What about the TGI (786-0 renal) of the same compound?
A: 2870 nM

Q: What about the GI50 (A498 renal) of the same compound?
A: 289 nM

Q: And the TGI (A498 renal)?
A: 1920 nM

Q: What about the GI50 (A549 NSCLC) of the same compound?
A: 1940 nM

Q: And the TGI (A549 NSCLC)?
A: 5730 nM

Q: What about the GI50 (ACHN renal) of the same compound?
A: 1330 nM

Q: What about the TGI (ACHN renal) of the same compound?
A: 2620 nM

Q: And the GI50 (BT-549 breast)?
A: 1760 nM

Q: What about the TGI (BT-549 breast) of the same compound?
A: 3550 nM

Q: And the GI50 (CAKI-1 renal)?
A: 1280 nM

Q: What about the TGI (CAKI-1 renal) of the same compound?
A: 2550 nM

Q: What about the GI50 (CCRF-CEM leukemia) of the same compound?
A: 2260 nM

Q: What about the TGI (CCRF-CEM leukemia) of the same compound?
A: 5300 nM

Q: What about the GI50 (COLO 205 colon) of the same compound?
A: 1770 nM

Q: And the TGI (COLO 205 colon)?
A: 3590 nM

Q: And the GI50 (DU-145 prostate)?
A: 4590 nM

Q: And the TGI (DU-145 prostate)?
A: 15600 nM

Q: And the GI50 (EKVX NSCLC)?
A: 1610 nM

Q: And the TGI (EKVX NSCLC)?
A: 12900 nM

Q: And the GI50 (HCC-2998 colon)?
A: 1430 nM

Q: What about the TGI (HCC-2998 colon) of the same compound?
A: 2900 nM

Q: What about the GI50 (HCT-116 colon) of the same compound?
A: 1710 nM

Q: What about the TGI (HCT-116 colon) of the same compound?
A: 3410 nM

Q: And the GI50 (HCT-15 colon)?
A: 1610 nM

Q: What about the TGI (HCT-15 colon) of the same compound?
A: 3550 nM

Q: And the GI50 (HOP-62 NSCLC)?
A: 1430 nM

Q: And the TGI (HOP-62 NSCLC)?
A: 12300 nM

Q: What about the GI50 (HT29 colon) of the same compound?
A: 1710 nM

Q: And the TGI (HT29 colon)?
A: 4330 nM

Q: What about the GI50 (IGROV1 ovarian) of the same compound?
A: 1400 nM

Q: And the TGI (IGROV1 ovarian)?
A: 5230 nM

Q: And the GI50 (K-562 leukemia)?
A: 168 nM

Q: And the TGI (K-562 leukemia)?
A: 1570 nM

Q: What about the GI50 (KM12 colon) of the same compound?
A: 3270 nM

Q: What about the TGI (KM12 colon) of the same compound?
A: 11900 nM

Q: And the GI50 (LOX IMVI melanoma)?
A: 1570 nM

Q: And the TGI (LOX IMVI melanoma)?
A: 2980 nM

Q: And the GI50 (M14 melanoma)?
A: 1790 nM

Q: What about the TGI (M14 melanoma) of the same compound?
A: 3350 nM

Q: What about the GI50 (MALME-3M melanoma) of the same compound?
A: 1760 nM

Q: And the TGI (MALME-3M melanoma)?
A: 3280 nM

Q: What about the GI50 (MCF7 breast) of the same compound?
A: 1440 nM

Q: What about the TGI (MCF7 breast) of the same compound?
A: 3190 nM

Q: What about the GI50 (MDA-MB-231 breast) of the same compound?
A: 1850 nM

Q: What about the TGI (MDA-MB-231 breast) of the same compound?
A: 3780 nM

Q: And the GI50 (MDA-MB-435)?
A: 1750 nM

Q: And the TGI (MDA-MB-435)?
A: 3200 nM

Q: And the GI50 (NCI-H226 lung)?
A: 13600 nM

Q: What about the TGI (NCI-H226 lung) of the same compound?
A: 32700 nM

Q: And the GI50 (NCI-H23 lung)?
A: 2830 nM

Q: And the TGI (NCI-H23 lung)?
A: 15500 nM

Q: And the GI50 (NCI-H460 lung)?
A: 2030 nM

Q: What about the TGI (NCI-H460 lung) of the same compound?
A: 4160 nM
